The results in this text go back to ChEMBL document CHEMBL1201862, “PubChem BioAssay data set” (2004).

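All cell lines were grown in 96-well plates and treated with compound for 48 hours. The concentration for 50% growth inhibition is given as GI50.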 The source made the active and inactive calls. Cut-off read from the data, not from the text of the source: active = GI50 up to about 1.1 µM and inactive = higher.

Some test systems named below: 786-0; BT-549; CCRF-CEM; HL-60; HOP-62; HT-29; Hs-578T; IGROV-1; M14; MCF7; MDA-MB-435; MDA-N; NCI-H226; NCI-H460; RXF 393; SF-539; SK-OV-3; SNB-75; T47D; TK-10.
Holding throughout (assay): NCI-60 cell line screen, 48 h

In the case of `COC(=O)Nc1nc2cc(S(=O)(=O)Nc3ccccn3)ccc2[nH]1`, the GI50 is 49.8 µM (inactive) with 786-0; 30.9 µM (inactive) in the experiment with BT-549; 26.1 µM (inactive) in the experiment on CCRF-CEM; 10.8 µM (inactive) with HL-60; 73.3 µM (inactive) with HOP-62; 43.1 µM (inactive) in the experiment on HT-29. Besides, the GI50 is 35.6 µM (inactive) in the experiment with Hs-578T; 27.9 µM (inactive) with IGROV-1; 78.9 µM (inactive) in the experiment on M14; 28.6 µM (inactive) in the experiment with MCF7; 14.1 µM (inactive) with MDA-MB-435; 20.7 µM (inactive) with MDA-N. Moreover, the GI50 in the experiment on NCI-H226 was 36.3 µM (inactive); in the experiment on NCI-H460, 34.6 µM (inactive); in the experiment on RXF 393 it was 39.6 µM (inactive); in the experiment on SF-539, 22.7 µM (inactive); with SK-OV-3 it was 44.5 µM (inactive); in the experiment on SNB-75 it was 22.6 µM (inactive). Moreover, the figures for the GI50 in the experiment with T47D and with TK-10 were 44.2 µM (inactive) and 33.3 µM (inactive), respectively.

Consider `COC(=O)[C@]1(c2cc3ccccc3n2S(=O)(=O)c2ccccc2)CC2CN(C(C)=O)C1CC2=O` (stereo not given in full), for which the GI50 is 1.28 µM (inactive) with 786-0; 2.61 µM (inactive) with BT-549; 0.637 µM (active) with CCRF-CEM; 1.34 µM (inactive) in the experiment with HL-60; 5.08 µM (inactive) in the experiment with HOP-62; 1.96 µM (inactive) in the experiment with HT-29. Moreover, the GI50 in the experiment with Hs-578T was 5.94 µM (inactive); in the experiment with IGROV-1, 2.57 µM (inactive); in the experiment with M14, 1.96 µM (inactive); in the experiment with MCF7 it was 1.69 µM (inactive); in the experiment with MDA-MB-435, 2.34 µM (inactive); in the experiment with MDA-N it was 2.79 µM (inactive). Also, the GI50 in the experiment on NCI-H226 is 2.17 µM (inactive); with NCI-H460, 3.14 µM (inactive); in the experiment on RXF 393 it was 1.77 µM (inactive); in the experiment with SF-539 it was 2.91 µM (inactive); with SK-OV-3 it was 8.13 µM (inactive); in the experiment on SNB-75, 3.15 µM (inactive). For the same compound, the GI50 is 2.16 µM (inactive) in the experiment on T47D and 7.73 µM (inactive) in the experiment on TK-10.
